Results taken from publication PMC5608804, “Stepwise Evolution Improves Identification of Diverse Peptides Binding to a Protein Target” (Scientific Reports, 2017).

Each substance was assayed against T1, streptavidin (Streptomyces avidinii, UniProt P22629) (assay: Cy5-streptavidin binding on HotSpot discovery array, 5-mer L-peptide library). Conditions: 5-mer L-peptide library array, Cy5-streptavidin; from average of three arrays.
T1 construct: purchased GE Healthcare (Little Chalfont, UK)
Excerpt: To identify hotspot sequences that bind to streptavidin (SA), we bound Cy5-SA to an array library of 2,476,099 5-mer L-peptides synthesized with 19 of 20 natural amino acids (excluding cysteine). The fluorescence signal intensity was aggregated across three independently synthesized arrays; then the 2,047 peptides with a signal-to-background ratio (S/B) >4 were selected. The data was further filtered to select 1,100 peptides for which signal intensities were highly correlated on all 3 arrays (the percentage of mean deviation to mean was <10%, see Supplementary dataset Table 2A). Most selected sequences (1,019 of 1,100) contained HP, PQ, or PM sequences: their presence would be expected in the well-known HPQ and HPM streptavidin binders[13]–[18].
The comprehensive peptide library included 2,476,099 5-mer peptides synthesized in a single copy with 19 of 20 L- or D-amino acids (excluding cysteine). Libraries were flanked on both N- and C-termini by linkers of 1 or 3 amino acids using a 3:1 glycine-serine mixture.
Cy5™-streptavidin (Cy5-SA) was purchased from GE Healthcare (Little Chalfont, UK). Freshly deprotected arrays were used in each experiment. Streptavidin binding to all arrays was performed with 0.5 µg/ml Cy5-SA either in binding buffer containing 10 mM Tris-HCl (pH 7.4), 1% alkali-soluble casein (EMD Millipore), 0.05% Tween-20 or in 10 mM Tris-HCl (pH 7.4), 4% BSA (Roche, Basel, Switzerland), 0.05% Tween-20 in a 30 mL PAP Jar container (Evergreen Scientific, Vernon, CA) overnight at 4° C. After incubation, arrays were washed in 20 mM Tris-HCl (pH 7.8), 0.2 M NaCl, 1% SDS or 1X TBS (pH 7.4) for 30 sec followed by a 1 min wash in water, and then dried by spinning in a microcentrifuge equipped with an array holder.
Cy5 fluorescence intensity of the arrays was measured with an MS200 scanner (Roche NimbleGen, Madison, WI) at resolution 2 µm, wavelength 635 nm, gain 25%, and laser intensity 100%. Cy5 signal intensities were extracted using Image Extraction Software (Roche NimbleGen). Data pre-processing, normalization, and statistical tests were performed using the language R. Data visualization and analysis was performed with the Spotfire 6.5.0 (Tibco, Boston, MA) software platform. Distance analysis and principle component analysis of distance matrices were performed with the R package PEPLIB[19].

T1 sequence (P22629 25-183): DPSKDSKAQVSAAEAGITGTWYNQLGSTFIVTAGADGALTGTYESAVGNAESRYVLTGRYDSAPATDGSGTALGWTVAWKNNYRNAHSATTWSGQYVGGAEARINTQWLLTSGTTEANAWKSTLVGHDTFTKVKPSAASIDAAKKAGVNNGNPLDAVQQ

Row | Substance | S/B (signal to background ratio)
1 | EHPQY | 22.3
2 | SPHPQ | 145.4
3 | IVHPM | 23.5
4 | HPQGV | 45.0
5 | WAHPQ | 207.5
6 | WAHPM | 135.8
7 | GPHPQ | 144.4
8 | HPMGN | 22.1
9 | HPQGP | 162.1
10 | GHPQF | 125.7
11 | LFHPQ | 138.2
12 | SGHPM | 54.4
13 | QYHPQ | 195.0
14 | AAHPM | 35.3
15 | LAMYH [L-amino acid 5-mer array peptide] | 22.8
16 | MAHPQ | 140.8
17 | PDHPM | 23.4
18 | KYHPQ | 140.2
19 | HPQGE | 40.1
20 | LAMFH [L-amino acid 5-mer array peptide] | 21.1
21 | VHPQA | 131.8
22 | FWHPQ | 176.5

Row | Substance | S/B (signal to background ratio)
23 | VDHPM | 26.0
24 | QSHPM | 42.7
25 | HPQAG | 125.6
26 | WKHPQ | 175.0
27 | THPQN | 136.1
28 | MMHPM | 48.8
29 | GQHPQ | 134.5
30 | MFHPQ | 198.9
31 | QHPQM | 40.0
32 | FHPMS | 46.0
33 | SHPQR | 26.8
34 | HPQQG | 47.0
35 | FHPMN | 26.9
36 | RHPQQ | 43.6
37 | QHHPQ | 136.3
38 | FHPQQ | 49.0
39 | VNHPQ | 137.6
40 | YHPMN | 26.1
41 | GQHPM | 43.1
42 | WRHPQ | 235.3
43 | KKHPQ | 22.5
44 | LHPQM | 29.4

Row | Substance | S/B (signal to background ratio)
45 | MWHPQ | 192.7
46 | MNHPQ | 166.1
47 | HHPQA | 145.4
48 | YFHPQ | 183.4
49 | VWHPQ | 171.7
50 | TNHPM | 57.8
51 | MHPMS | 25.8
52 | LMHPQ | 161.1
53 | SRHPQ | 154.4
54 | PHPQQ | 53.1
55 | HPMFS | 20.6
56 | TEHPQ | 57.0
57 | HHPMS | 40.6
58 | PHPMS | 30.6
59 | LGAFH [L-amino acid 5-mer array peptide] | 52.3
60 | HPHPQ | 185.1
61 | HPQVH | 57.8
62 | HMHPQ | 133.8
63 | IWHPQ | 174.8
64 | VMHPQ | 127.9

Same assay, conditions: 5-mer L-peptide library array, Cy5-streptavidin; from the average of three arrays

Row | Substance | S/B (signal to background ratio)
65 | HPQFH | 64.4
66 | LHPQV | 74.5
67 | EHHPQ | 87.5
68 | NQHPQ | 107.5
69 | KNHPQ | 104.8
70 | YAHPM | 87.4
71 | SFHPM | 65.3
72 | HPQNV | 84.4
73 | KHPQA | 92.8
74 | LQHPM | 62.8
75 | THPQS | 70.8
76 | SHPQV | 98.7
77 | MHPQS | 75.9
78 | LPHPM | 58.1
79 | HPQNY | 103.6
80 | HPQGA | 92.1
81 | MWHPM | 86.7
82 | YDHPQ | 116.2
83 | HPQYN | 66.1
84 | GHPQA | 110.5
85 | FIHPM | 68.2
86 | VHPQV | 61.3
87 | HPQVA | 67.2
88 | MHPQF | 107.7
89 | HPQGH | 86.0
90 | HPQVS | 77.3
91 | FAHPM | 90.2
92 | MFHPM | 85.4
93 | GHPMG | 65.8

Same assay, conditions: 5-mer L-peptide library, from the average of three arrays

Row | Substance | S/B (signal to background ratio)
94 | HPWRS | 4.0
95 | HPMRT | 4.3
96 | HPAYT | 5.1
97 | HPMSY | 4.8
98 | GPMPD | 4.4
99 | WRHPH | 4.2
100 | AHPQP | 4.1
101 | WDAWE [L-amino acid 5-mer array peptide] | 4.0
102 | HGFPT | 4.2
103 | FFMIM [L-amino acid 5-mer array peptide] | 5.1
104 | YHFPQ | 4.9
105 | FMPHP | 5.0
106 | HPQTV | 4.3
107 | KHPMF | 4.5
108 | HPQRI | 5.0
109 | HPMMF | 5.1
110 | YWTDG [L-amino acid 5-mer array peptide] | 4.7

Same assay, conditions: average of three arrays, L-peptide 5-mer library

Row | Substance | S/B (signal to background ratio)
111 | LAMYH [L-amino acid 5-mer array peptide] | 22.8
112 | LARYH [L-amino acid 5-mer array peptide] | 12.2
113 | LAMFH [L-amino acid 5-mer array peptide] | 21.1
114 | LGIYH [L-amino acid 5-mer array peptide] | 10.5
115 | TPSFH [L-amino acid 5-mer array peptide] | 6.7
116 | WDAWE [L-amino acid 5-mer array peptide] | 4.0
117 | HGFPT | 4.2
118 | FFMIM [L-amino acid 5-mer array peptide] | 5.1
119 | YWTDG [L-amino acid 5-mer array peptide] | 4.7
120 | LGAFH [L-amino acid 5-mer array peptide] | 52.3

Same assay, conditions: signal to background ratio; 5-mer L-peptide library array, Cy5-streptavidin

Row | Substance | S/B
121 | QHPMI | 6.4
122 | HPQQW | 16.8
123 | MHPMM | 9.8
124 | EHPQI | 6.3
125 | THPMH | 9.5
126 | PHPQK | 14.7
127 | EAHPM | 16.5
128 | PMPDD | 8.2
129 | KHPQT | 7.6
130 | LARYH [L-amino acid 5-mer array peptide] | 12.2
131 | IHPQD | 10.4
132 | THPQK | 14.5
133 | MHPMR | 10.8
134 | AHPQK | 12.1
135 | LHPMY | 7.0
136 | NHPQK | 14.8
137 | HPMGI | 7.9
138 | HPMFL | 5.4

Row | Substance | S/B
139 | THPQT | 11.0
140 | LGIYH [L-amino acid 5-mer array peptide] | 10.5
141 | AKHPM | 18.3
142 | TPSFH [L-amino acid 5-mer array peptide] | 6.7
143 | HPMGW | 18.2
144 | HPADF | 6.3
145 | HPQRN | 17.7
146 | HPMSA | 8.0
147 | HPQWQ | 5.5
148 | THPMM | 11.1
149 | HPQPP | 6.0
150 | HPMYR | 5.9
151 | HPMYS | 8.6
152 | HPQRD | 10.7
153 | DSHPM | 17.9
154 | LHPMN | 9.7
155 | HPMQA | 6.4
156 | HPQST | 12.9
